Consider 17 molecules from US11332452B2, “Pesticidal compositions and methods” (priority 2019, dated 2022).

What all share (type): in vivo
The test system of series [1] is Yellow Fever Mosquito (Aedes aegypti, AEDSAE). The experiment in a line: Insecticidal test for yellow fever mosquito (YFM), 96-well plate larval assay. The note with it: from 4000 ppm DMSO master solution, diluted; about 1 day-old larvae; room temperature; scored after 3 days. Here is the method: Insecticidal Test for Yellow Fever Mosquito (Aedes aegypti, AEDSAE) (“YFM”)
Master plates containing 400 μg of a molecule dissolved in 100 μL of dimethyl sulfoxide (DMSO) (equivalent to a 4000 ppm solution) are used. A master plate of assembled molecules contains 15 μL per well. To this plate, 135 μL of a 90:10 water/acetone mixture is added to each well. A robot (Biomek® NXP Laboratory Automation Workstation) is programmed to dispense 15 μL aspirations from the master plate into an empty 96-well shallow plate (“daughter” plate). There are 6 reps (“daughter” plates) created per master. The created “daughter” plates are then immediately infested with YFM larvae.
The day before plates are to be treated, mosquito eggs are placed in Millipore water containing liver powder to begin hatching (4 g. into 400 mL). After the “daughter” plates are created using the robot, they are infested with 220 μL of the liver powder/larval mosquito mixture (about 1 day-old larvae). After plates are infested with mosquito larvae, a non-evaporative lid is used to cover the plate to reduce drying. Plates are held at room temperature for 3 days prior to grading. After 3 days, each well is observed and scored based on mortality.

Series [2] has as its system Cabbage Looper (Trichloplusia Ni, TRIPNI). Put plainly: Insecticidal test for cabbage looper (CL), 128-well diet tray assay. The note with it: Trichoplusia ni, 168 h, read-out: CL % Control (or Mortality) rating. On the procedure:
Insecticidal Test for Cabbage Looper (Trichloplusia Ni, TRIPNI) (“CL”)
(§1) Bioassays on cabbage looper (CL; Trichloplusia ni: Lepidoptera) are conducted using a 128-well diet tray assay. One to five second instar CL larvae are placed in each well (3 mL) of the diet tray that had been previously filled with 1 mL of artificial diet to which 50 μg/cm^2 of the test compound (dissolved in 50 μL of 90:10 acetone-water mixture) had been applied (to each of eight wells) and then allowed to dry. Trays are covered with a clear self-adhesive cover, vented to allow gas exchange, and held at 25° C., 14:10 light-dark for five to seven days. Percent mortality is recorded for the larvae in each well; activity in the eight wells is then averaged.

The test system of series [3] is Beet Armyworm (Spodoptera exigua, LAPHEG). Put plainly: Insecticidal test for beet armyworm (BAW), 128-well diet tray assay. The note with it: 168 h, 50 μg/cm^2 of test compound on artificial diet, second instar larvae, 25° C., five to seven days, average of eight wells, read-out: BAW % Control (or Mortality) rating. Here is the method:
Insecticidal Test for Beet Armyworm (Spodoptera exigua, LAPHEG) (“BAW”)
as §1, with “beet armyworm (BAW; Spodoptera exigua:” for “cabbage looper (CL; Trichloplusia ni:”, “BAW” for “CL”

Turning to `Cc1ccc(C(C)C)c(N2C(=O)CS/C2=N\C(=O)NCCc2ccc(NCC(=O)c3ccc(OC(F)(F)F)cc3)cc2)c1` [Compound A1, (Z)-1-(3-(2-isopropyl-5-methylphenyl)-4-oxothiazolidin-2-ylidene)-3-(4-((2-oxo-2-(4-(trifluoromethoxy)phenyl)ethyl)amino)phenethyl)urea], in series [1], the “YFM % Control (or Mortality) rating” value was “A (80-100)”. In addition, the mortality at 50 µg/cm2 in series [2] and in series [3] was 50 to 100% throughout.

Consider `Cc1ccc(C(C)C)c(N2C(=O)CS/C2=N\C(=O)Nc2ccc(C(=O)NNc3ccc(OC(F)(F)F)cc3)cc2)c1` [Compound A2, (Z)-1-(3-(2-Isopropyl-5-methylphenyl)-4-oxothiazolidin-2-ylidene)-3-(4-(2-(4-(trifluoromethoxy)phenyl)hydrazine-1-carbonyl)phenyl)urea], for which, in series [1], the “YFM % Control (or Mortality) rating” value is “A (80-100)”. Also, the mortality at 50 µg/cm2 in series [2] and in series [3] was 50 to 100% in each case.

With `Cc1ccc(OCC(F)(F)F)c(N2C(=O)CS/C2=N\C(=O)Nc2ccc(C(=O)NNc3ccc(OC(F)(F)F)cc3)cc2)c1` [Compound A3, (Z)-1-(3-(5-methyl-2-(2,2,2-trifluoroethoxy)phenyl)-4-oxothiazolidin-2-ylidene)-3-(4-(2-(4-(trifluoromethoxy)phenyl)hydrazine-1-carbonyl)phenyl)urea], the “YFM % Control (or Mortality) rating” value in series [1] was “D (No activity noticed in this bioassay)”. Also, the mortality at 50 µg/cm2 in series [2] and in series [3] was 50 to 100% each time.

On to `Cc1ccc(C(C)C)c(N2C(=O)CS/C2=N\C(=O)Nc2ccc(NNC(=O)c3ccc(OC(F)(F)F)cc3)cc2)c1` [Compound A4, (Z)-1-(3-(2-isopropyl-5-methylphenyl)-4-oxothiazolidin-2-ylidene)-3-(4-(2-(4-(trifluoromethoxy)benzoyl)hydrazinyl)phenyl)urea], for which the “YFM % Control (or Mortality) rating” value in series [1] was “A (80-100)”. The mortality at 50 µg/cm2 in series [2] and in series [3] was 50 to 100% each time.

For `Cc1ccc(OCC(F)(F)F)c(N2C(=O)CS/C2=N\C(=O)Nc2ccc(NNC(=O)c3ccc(OC(F)(F)F)cc3)cc2)c1` [Compound A5, (Z)-1-(3-(5-Methyl-2-(2,2,2-trifluoroethoxy)phenyl)-4-oxothiazolidin-2-ylidene)-3-(4-(2-(4-(trifluoromethoxy)benzoyl)hydrazinyl)phenyl)urea], in series [1], the “YFM % Control (or Mortality) rating” value is recorded as “B (More than 0-Less than 80)”. For the same molecule, the mortality at 50 µg/cm2 in series [2] and in series [3] was 0 to 50% in each case.

For the molecule `O=C(/N=C1\SCC(=O)N1c1cc(Cl)ccc1OCC(F)(F)F)Nc1ccc(NNC(=O)c2ccc(OC(F)(F)F)cc2)cc1` [Compound A6, (Z)-1-(3-(5-Chloro-2-(2,2,2-trifluoroethoxy)phenyl)-4-oxothiazolidin-2-ylidene)-3-(4-(2-(4-(trifluoromethoxy)benzoyl)hydrazinyl)phenyl)urea], in series [1], the “YFM % Control (or Mortality) rating” value is given as “D (No activity noticed in this bioassay)”. In addition, the mortality at 50 µg/cm2 in series [2] and in series [3] was 0% each time.

As for `Cc1ccc(C(C)C)c(N2C(=O)CS/C2=N\C(=O)Nc2ccc(NC(=O)Nc3ccc(OC(F)(F)F)cc3)cc2)c1` [Compound A7, (Z)-1-(3-(2-isopropyl-5-methylphenyl)-4-oxothiazolidin-2-ylidene)-3-(4-(3-(4-(trifluoromethoxy)phenyl)ureido)phenyl)urea], the “YFM % Control (or Mortality) rating” value in series [1] is “A (80-100)”. Further, the mortality at 50 µg/cm2 in series [2] and in series [3] was 50 to 100% throughout.

On to `Cc1ccc(C(C)C)c(N2C(=O)CS/C2=N\C(=O)NCCc2ccc(NC(=O)Nc3ccc(OC(F)(F)F)cc3)cc2)c1` [Compound A8, (Z)-1-(3-(2-isopropyl-5-methylphenyl)-4-oxothiazolidin-2-ylidene)-3-(4-(3-(4-(trifluoromethoxy)phenyl)ureido)phenethyl)urea], for which the “YFM % Control (or Mortality) rating” value in series [1] is “A (80-100)”. Besides, the mortality at 50 µg/cm2 in series [2] and in series [3] was 50 to 100% throughout.

In the case of `Cc1ccc(C(C)C)c(N2C(=O)CS/C2=N\C(=O)NCCc2ccc(NC(=O)Nc3ccc(C(F)(F)F)cc3)cc2)c1` [Compound A9, (Z)-1-(4-(2-(3-(3-(2-isopropyl-5-methylphenyl)-4-oxothiazolidin-2-ylidene)ureido)ethyl)phenyl)-3-(4-(trifluoromethyl)phenyl)urea], the “YFM % Control (or Mortality) rating” value in series [1] was “A (80-100)”. Also, the mortality at 50 µg/cm2 in series [2] and in series [3] was 50 to 100% each time.

In the case of `COc1ccc(N2C(=O)CS/C2=N\C(=O)NCCc2ccc(NC(=O)Nc3ccc(C(F)(F)F)cc3)cc2)c(C)c1` [Compound A10, (Z)-1-(4-(2-(3-(3-(4-Methoxy-2-methylphenyl)-4-oxothiazolidin-2-ylidene)ureido)ethyl)phenyl)-3-(4-(trifluoromethyl)phenyl)urea], in series [1], the “YFM % Control (or Mortality) rating” value is given as “A (80-100)”. Moreover, the mortality at 50 µg/cm2 in series [2] and in series [3] was 50 to 100% throughout.

Take `CCc1cccc(C)c1N1C(=O)CS/C1=N\C(=O)NCCc1ccc(NC(=O)Nc2ccc(C(F)(F)F)cc2)cc1` [Compound A11, (Z)-1-(4-(2-(3-(3-(2-Ethyl-6-methylphenyl)-4-oxothiazolidin-2-ylidene)ureido)ethyl)phenyl)-3-(4-(trifluoromethyl)phenyl)urea]: the “YFM % Control (or Mortality) rating” value in series [1] is “A (80-100)”. The mortality at 50 µg/cm2 in series [2] and in series [3] was 50 to 100% in each case.

As to `CC(C)c1ccccc1N1C(=O)CS/C1=N\C(=O)NCCc1ccc(NC(=O)Nc2ccc(C(F)(F)F)cc2)cc1` [Compound A12, (Z)-1-(4-(2-(3-(3-(2-Isopropylphenyl)-4-oxothiazolidin-2-ylidene)ureido)ethyl)phenyl)-3-(4-(trifluoromethyl)phenyl)urea], the “YFM % Control (or Mortality) rating” value in series [1] is reported as “A (80-100)”. In addition, the mortality at 50 µg/cm2 in series [2] and in series [3] was 50 to 100% throughout.

Turning to `CC(C)c1ccc(Cl)cc1N1C(=O)CS/C1=N\C(=O)NCCc1ccc(NC(=O)Nc2ccc(C(F)(F)F)cc2)cc1` [Compound A13, (Z)-1-(4-(2-(3-(3-(5-Chloro-2-isopropylphenyl)-4-oxothiazolidin-2-ylidene)ureido)ethyl)phenyl)-3-(4-(trifluoromethyl)phenyl)urea], the “YFM % Control (or Mortality) rating” value in series [1] is recorded as “A (80-100)”. Also, the mortality at 50 µg/cm2 in series [2] and in series [3] was 50 to 100% throughout.

As for `Cc1ccc(C(C)C)c(-n2ccs/c2=N\C(=O)NCCc2ccc(NC(=O)Nc3ccc(C(F)(F)F)cc3)cc2)c1` [Compound A14, (Z)-1-(4-(2-(3-(3-(2-Isopropyl-5-methylphenyl)thiazol-2(3H)-ylidene)ureido)ethyl)phenyl)-3-(4-(trifluoromethyl)phenyl)urea], in series [1], the “YFM % Control (or Mortality) rating” value is given as “A (80-100)”. Besides, the mortality at 50 µg/cm2 in series [2] and in series [3] was 50 to 100% each time.

For the molecule `CC(C)c1ccc(Cl)cc1N1C(=O)CS/C1=N\C(=O)NCCc1ccc(NC(=O)Nc2ccc(OC(F)(F)F)cc2)cc1` [Compound A15, (Z)-1-(4-(2-(3-(3-(5-Chloro-2-isopropylphenyl)-4-oxothiazolidin-2-ylidene)ureido)ethyl)phenyl)-3-(4-(trifluoromethoxy)phenyl)urea], in series [1], the “YFM % Control (or Mortality) rating” value is “A (80-100)”. Besides, the mortality at 50 µg/cm2 in series [2] and in series [3] was 50 to 100% in each case.

Take `CC(C)c1ccccc1N1C(=O)CS/C1=N\C(=O)NCCc1ccc(NC(=O)Nc2ccc(OC(F)(F)F)cc2)cc1` [Compound A16, (Z)-1-(4-(2-(3-(3-(2-Isopropylphenyl)-4-oxothiazolidin-2-ylidene)ureido)ethyl)phenyl)-3-(4-(trifluoromethoxy)phenyl)urea]: the “YFM % Control (or Mortality) rating” value in series [1] is listed as “A (80-100)”. Also, the mortality at 50 µg/cm2 in series [2] and in series [3] was 50 to 100% in each case.

Take `CCc1cccc(C)c1N1C(=O)CS/C1=N\C(=O)NC(C)Cc1ccc(NC(=O)Nc2ccc(C(F)(F)F)cc2)cc1` (centres unmarked) [Compound A32, (Z)-1-(4-(2-(3-(3-(2-Ethyl-6-methylphenyl)-4-oxothiazolidin-2-ylidene)ureido)propyl)phenyl)-3-(4-(trifluoromethyl)phenyl)urea]: the mortality at 50 µg/cm2 in series [2] and in series [3] was 50 to 100% throughout.
